Among the test systems are 786-0; CCRF-CEM; MDA-N; UACC-257; OVCAR-4; SNB-19; HT-29; NCI-H460; MDA-MB-231; SR; PC-3; HOP-62; NCI/ADR-RES; TK-10; HL-60; SN12C; LOX IMVI; Hs-578T; HCT-116.
Assay in all cases: NCI tumour cell line growth inhibition, 48 h

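96-well plates; 48 h exposure; 5 concentrations. Endpoints by linear interpolation between flanking doses. Not reached: highest tested concentration assigned. GI50 is the concentration that inhibits growth by half.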 Calls of active or inactive are those of the source. Rule as the data show it: active = GI50 up to about 1.1 µM and inactive = higher. A value given as a limit tells only on which side of the number the result lay.

In the case of `Cc1ccc(NC(=O)c2cc(S(=O)(=O)Nc3n[nH]c(=O)[nH]3)c(SSc3cc(Cl)c(C(=O)Nc4ccc(C)cc4)cc3S(=O)(=O)Nc3n[nH]c(=O)[nH]3)cc2Cl)cc1`, the GI50 in the test with 786-0, in the test on CCRF-CEM, in the test on MDA-N, in the test on UACC-257, in the test on OVCAR-4 and in the test with SNB-19 was > 100 µM (inactive) each time. Also, the GI50 in the test on HT-29, with NCI-H460, with MDA-MB-231, in the test with SR, in the test on PC-3 and in the test with HOP-62 was > 100 µM (inactive) each time. Further, the GI50 in the test with NCI/ADR-RES, in the test with TK-10, in the test on HL-60, in the test with SN12C, with LOX IMVI and with Hs-578T was > 100 µM (inactive) in each case. In addition, the GI50 in the test with HCT-116 is > 100 µM (inactive).
Consider `C#CCCOC(=O)CC1=C(C)/C(=C/c2ccc([S+](C)[O-])cc2)c2ccc(F)cc21` (centres undefined), for which the GI50 was 19.8 µM (inactive) in the test with 786-0; 15 µM (inactive) with CCRF-CEM; 6.67 µM (inactive) in the test with MDA-N; 15.7 µM (inactive) with UACC-257; 19.2 µM (inactive) in the test with OVCAR-4; 13.6 µM (inactive) in the test on SNB-19. Also, the GI50 with NCI-H460 was 18 µM (inactive); with MDA-MB-231, 8.49 µM (inactive); in the test on SR it was 3.47 µM (inactive); with PC-3, 11.3 µM (inactive); in the test on HOP-62, 27.2 µM (inactive); in the test on NCI/ADR-RES, 13.3 µM (inactive). For the same compound, the GI50 with TK-10 is 28.3 µM (inactive); with HL-60, 5.79 µM (inactive); in the test with SN12C, 19.5 µM (inactive); in the test on LOX IMVI, 14.9 µM (inactive); with Hs-578T it was 13.5 µM (inactive); in the test with HCT-116, 16.8 µM (inactive).
Regarding `O=C1/C(=C\c2ccc(Cl)cc2Cl)Sc2scc(-c3cccc([N+](=O)[O-])c3)[n+]21`, the GI50 in the test with 786-0 is 3.39 µM (inactive); in the test on CCRF-CEM, 0.291 µM (active); with MDA-N, 4.28 µM (inactive); in the test with UACC-257, 5.79 µM (inactive); in the test on OVCAR-4, 12 µM (inactive); in the test on SNB-19 it was 12.8 µM (inactive). The GI50 with HT-29 is 3.28 µM (inactive); in the test with NCI-H460, 13.1 µM (inactive); in the test with MDA-MB-231, 9.14 µM (inactive); in the test with SR, 2.58 µM (inactive); in the test on PC-3, 15.6 µM (inactive); with HOP-62 it was 16.5 µM (inactive). Further, the GI50 in the test with NCI/ADR-RES was 8.75 µM (inactive); in the test with TK-10 it was 4.07 µM (inactive); with HL-60, 0.49 µM (active); with SN12C, 5.33 µM (inactive); with LOX IMVI it was 1.55 µM (inactive); in the test on Hs-578T, 24.7 µM (inactive). Further, the GI50 in the test on HCT-116 was 5.2 µM (inactive).
On to `CN(CCCN(C)Cc1ccc(Cl)c(Cl)c1)CCN1CCCC1`, for which the GI50 in the test with 786-0 is 13.5 µM (inactive); in the test with CCRF-CEM, 7.11 µM (inactive); in the test with MDA-N it was 4.32 µM (inactive); in the test with UACC-257 it was 2.62 µM (inactive); in the test with OVCAR-4, 66.7 µM (inactive); with SNB-19, 22.5 µM (inactive). Besides, the GI50 is 4.13 µM (inactive) in the test on HT-29; 16.9 µM (inactive) in the test with NCI-H460; 13.1 µM (inactive) with MDA-MB-231; 8.45 µM (inactive) with SR; 28.2 µM (inactive) with PC-3; 26.5 µM (inactive) in the test on HOP-62. Further, the GI50 was > 66.5 µM (inactive) in the test on NCI/ADR-RES; 24.2 µM (inactive) in the test with TK-10; 23.4 µM (inactive) in the test with HL-60; 37.8 µM (inactive) with SN12C; 14.4 µM (inactive) in the test on LOX IMVI; 17.7 µM (inactive) in the test with Hs-578T. Also, the GI50 with HCT-116 is 12 µM (inactive).
As to `Cc1ccc(/N=c2/oc3c(ccc4ccccc43)nc2Nc2ccc(C)cc2)cc1`, the GI50 in the test on 786-0, in the test with CCRF-CEM, in the test on MDA-N, in the test with UACC-257, in the test on OVCAR-4 and in the test with SNB-19 was > 100 µM (inactive) throughout. For the same compound, the GI50 with HT-29 is > 100 µM (inactive); in the test with NCI-H460, > 100 µM (inactive); in the test with MDA-MB-231, > 100 µM (inactive); with SR, 69.8 µM (inactive); with PC-3, > 100 µM (inactive); with HOP-62 it was > 100 µM (inactive). The GI50 in the test with NCI/ADR-RES, in the test with TK-10, in the test on HL-60, in the test with SN12C, with LOX IMVI and in the test with Hs-578T was > 100 µM (inactive) each time. Further, the GI50 in the test on HCT-116 was > 100 µM (inactive).
In the case of `CC(=O)C1=CC=C/C1=N\Nc1ccccc1`, the GI50 was 4.31 µM (inactive) in the test on 786-0; 2.94 µM (inactive) in the test on CCRF-CEM; 6.22 µM (inactive) in the test on MDA-N; 15.5 µM (inactive) in the test on UACC-257; 5.71 µM (inactive) in the test on OVCAR-4; 21.1 µM (inactive) in the test on SNB-19. Also, the GI50 is 3.83 µM (inactive) in the test with HT-29; 11.6 µM (inactive) with NCI-H460; 10 µM (inactive) in the test on MDA-MB-231; 0.543 µM (active) with SR; 5.45 µM (inactive) in the test on PC-3; 20.8 µM (inactive) in the test on HOP-62. The GI50 in the test with NCI/ADR-RES was 5.28 µM (inactive); in the test on TK-10 it was 7.14 µM (inactive); in the test on HL-60, 0.647 µM (active); with SN12C, 5.81 µM (inactive); in the test with LOX IMVI, 2.84 µM (inactive); with Hs-578T, 4.48 µM (inactive). Moreover, in the test with HCT-116, the GI50 is 4.99 µM (inactive).
Regarding `COc1ccc2c(c1O)[C@@]13C=C(O)C(=O)C=C1[C@@H](C2)N(C)CC3`, the GI50 is 75 µM (inactive) in the test on 786-0; 43.8 µM (inactive) with CCRF-CEM; 47 µM (inactive) with MDA-N; 43 µM (inactive) in the test with UACC-257; 62.4 µM (inactive) with OVCAR-4; 63.1 µM (inactive) in the test on SNB-19. The GI50 with HT-29 is 31.6 µM (inactive); in the test with NCI-H460 it was 63.4 µM (inactive); in the test with MDA-MB-231 it was > 100 µM (inactive); in the test with SR, 42.7 µM (inactive); in the test with PC-3, 34.8 µM (inactive); in the test with HOP-62, 49.4 µM (inactive). For the same compound, the GI50 in the test on NCI/ADR-RES was 51.9 µM (inactive); with TK-10, > 100 µM (inactive); in the test with HL-60, 46.1 µM (inactive); in the test with SN12C it was 50 µM (inactive); in the test with LOX IMVI it was 31.6 µM (inactive); in the test on Hs-578T, 59.3 µM (inactive). The GI50 with HCT-116 was 34.1 µM (inactive).
Take `Cc1ccc(S(=O)(=O)NC2C(=O)c3ccccc3C(=O)C2n2cnc3ccccc32)cc1` (centres undefined): the GI50 in the test with 786-0 is 39.5 µM (inactive); with CCRF-CEM, 53.1 µM (inactive); in the test with MDA-N, 19.4 µM (inactive); in the test on UACC-257, 28.9 µM (inactive); with OVCAR-4 it was 2.19 µM (inactive); in the test with SNB-19, 27.4 µM (inactive). For the same compound, the GI50 in the test with HT-29 was 28.1 µM (inactive); in the test with NCI-H460, 19.5 µM (inactive); in the test with MDA-MB-231 it was 17.9 µM (inactive); in the test on SR it was 34.4 µM (inactive); with PC-3 it was 21.2 µM (inactive); with HOP-62 it was 50.4 µM (inactive). The GI50 is 22.1 µM (inactive) in the test on NCI/ADR-RES; 17.7 µM (inactive) in the test with TK-10; 16.6 µM (inactive) in the test on HL-60; 32.7 µM (inactive) in the test on SN12C; 31.8 µM (inactive) in the test on LOX IMVI; 51.6 µM (inactive) with Hs-578T. Further, in the test with HCT-116, the GI50 was 27.4 µM (inactive).
On to `Cc1ccc(CC2(OCCN(C)C)CCC(C(C)(C)C)CC2)cc1` (centres undefined), for which the GI50 in the test with 786-0 was 1.88 µM (inactive); with CCRF-CEM, 2.65 µM (inactive); in the test with MDA-N it was 2.28 µM (inactive); with UACC-257 it was 2.09 µM (inactive); in the test on OVCAR-4, 5.13 µM (inactive); in the test with SNB-19, 5.28 µM (inactive). Moreover, the GI50 was 2.23 µM (inactive) in the test on HT-29; 1.79 µM (inactive) in the test on NCI-H460; 5.56 µM (inactive) in the test on MDA-MB-231; 2.08 µM (inactive) with SR; 3.89 µM (inactive) with PC-3; 2.55 µM (inactive) in the test on HOP-62. Moreover, the GI50 was 7.98 µM (inactive) in the test on NCI/ADR-RES; 6.87 µM (inactive) in the test with TK-10; 2.02 µM (inactive) with HL-60; 5.97 µM (inactive) in the test with SN12C; 1.63 µM (inactive) in the test on LOX IMVI; 8.04 µM (inactive) in the test on Hs-578T. For the same compound, in the test on HCT-116, the GI50 is 2.26 µM (inactive).
For the compound `O=C(Oc1cccc2cccnc12)c1cc2cc(CCl)ccc2oc1=O`, the GI50 is 20.7 µM (inactive) in the test with 786-0; 0.277 µM (active) in the test with CCRF-CEM; 16.1 µM (inactive) in the test on MDA-N; 6.05 µM (inactive) in the test on UACC-257; 25.6 µM (inactive) with OVCAR-4; 43.7 µM (inactive) in the test with SNB-19. Moreover, the GI50 with HT-29 was 8.09 µM (inactive); in the test on NCI-H460, 10.9 µM (inactive); in the test with MDA-MB-231, 27.1 µM (inactive); in the test with SR it was 4.27 µM (inactive); in the test on PC-3 it was 12.7 µM (inactive); in the test on HOP-62, 44.3 µM (inactive). Besides, the GI50 in the test on NCI/ADR-RES was 4.18 µM (inactive); in the test with TK-10, 25.5 µM (inactive); in the test with HL-60 it was 3.22 µM (inactive); in the test on SN12C, 10.6 µM (inactive); in the test on LOX IMVI it was 25.3 µM (inactive); in the test with Hs-578T, 46.2 µM (inactive). In addition, in the test with HCT-116, the GI50 was 3.4 µM (inactive).
